Data from PubChem BioAssay (NCI).
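Compound exposure: 48 hours, 5 concentrations, 96-well plates. TGI: total growth inhibition.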

What was measured:
Assay in all cases: NCI anticancer screen, dose series, 48 h
[1] = test system: 786-0 renal
[2] = test system: A498 renal
[3] = test system: A549 NSCLC
[4] = test system: ACHN renal
[5] = test system: CAKI-1 renal
[6] = test system: COLO 205 colon
[7] = test system: DU-145 prostate
[8] = test system: HCC-2998 colon
[9] = test system: HCT-116 colon
[10] = test system: HL-60(TB) leukemia
[11] = test system: HOP-62 NSCLC
[12] = test system: K-562 leukemia
[13] = test system: KM12 colon
[14] = test system: M14 melanoma
[15] = test system: MCF7 breast
[16] = test system: MDA-MB-231 breast
[17] = test system: MDA-MB-435
[18] = test system: MDA-N
[19] = test system: MOLT-4 leukemia
[20] = test system: NCI-H226 lung
[21] = test system: NCI-H460 lung
[22] = test system: OVCAR-3 ovarian
[23] = test system: OVCAR-4 ovarian
[24] = test system: PC-3 prostate
[25] = test system: RPMI-8226 leukemia
[26] = test system: RXF 393 renal
[27] = test system: SF-295 CNS
[28] = test system: SK-MEL-2 melanoma
[29] = test system: SK-MEL-28 melanoma
[30] = test system: SK-MEL-5 melanoma
[31] = test system: SK-OV-3 ovarian
[32] = test system: SN12C renal
[33] = test system: SNB-19 CNS
[34] = test system: SNB-75 CNS
[35] = test system: SW-620 colon
[36] = test system: T-47D breast
[37] = test system: TK-10 renal
[38] = test system: U251 CNS
[39] = test system: UACC-257 melanoma
[40] = test system: UACC-62 melanoma
[41] = test system: UO-31 renal
[42] = test system: CCRF-CEM leukemia
[43] = test system: EKVX NSCLC
[44] = test system: HCT-15 colon
[45] = test system: HOP-92 NSCLC
[46] = test system: HS 578T breast
[47] = test system: HT29 colon
[48] = test system: IGROV1 ovarian
[49] = test system: LOX IMVI melanoma
[50] = test system: NCI-H23 lung
[51] = test system: NCI-H522 lung
[52] = test system: NCI/ADR-RES ovarian
[53] = test system: OVCAR-5 ovarian
[54] = test system: OVCAR-8 ovarian
[55] = test system: SF-268 CNS
[56] = test system: SF-539 CNS
[57] = test system: SR leukemia

COC(=O)C1=C2SCc3ccc(cc3)CSC3=C(C(=O)OC)SC(=C(S2)S1)S3
TGI [1]: > 100 µM
TGI [2]: > 100 µM
TGI [3]: > 100 µM
TGI [4]: > 100 µM
TGI [5]: > 100 µM
TGI [6]: > 100 µM
TGI [7]: > 100 µM
TGI [8]: > 100 µM
TGI [9]: > 100 µM
TGI [10]: 9.51 µM
TGI [11]: > 100 µM
TGI [12]: > 100 µM
TGI [13]: > 100 µM
TGI [14]: > 100 µM
TGI [15]: > 100 µM
TGI [16]: > 100 µM
TGI [17]: > 100 µM
TGI [18]: > 100 µM
TGI [19]: > 100 µM
TGI [20]: > 100 µM
TGI [21]: > 100 µM
TGI [22]: > 100 µM
TGI [23]: > 100 µM
TGI [24]: > 100 µM
TGI [25]: > 100 µM
TGI [26]: > 100 µM
TGI [27]: > 100 µM
TGI [28]: > 100 µM
TGI [29]: > 100 µM
TGI [30]: > 100 µM
TGI [31]: > 100 µM
TGI [32]: > 100 µM
TGI [33]: > 100 µM
TGI [34]: > 100 µM
TGI [35]: > 100 µM
TGI [36]: > 100 µM
TGI [37]: > 100 µM
TGI [38]: > 100 µM
TGI [39]: > 100 µM
TGI [40]: > 100 µM
TGI [41]: > 100 µM

COc1c2c(cc3nc4ccccc4nc13)CC[C@H](NC(C)=O)c1cc(=O)c(SC)ccc1-2
TGI [1]: 39.8 µM
TGI [2]: > 90.9 µM
TGI [3]: > 100 µM
TGI [4]: > 64.5 µM
TGI [5]: > 42.6 µM
TGI [42]: > 100 µM
TGI [6]: 3.31 µM
TGI [7]: 51.3 µM
TGI [43]: 8.63 µM
TGI [8]: > 24.6 µM
TGI [9]: 27.3 µM
TGI [44]: 19 µM
TGI [11]: > 100 µM
TGI [45]: > 55.9 µM
TGI [46]: 0.7 µM
TGI [47]: 6.23 µM
TGI [48]: 4.36 µM
TGI [12]: > 42.2 µM
TGI [13]: 3 µM
TGI [49]: > 71.6 µM
TGI [14]: 19.3 µM
TGI [15]: > 100 µM
TGI [16]: 36.1 µM
TGI [18]: 0.329 µM
TGI [19]: > 65.4 µM
TGI [20]: 32.2 µM
TGI [50]: 0.777 µM
TGI [21]: > 100 µM
TGI [51]: 1.69 µM
TGI [52]: > 100 µM
TGI [22]: > 100 µM
TGI [23]: 38.7 µM
TGI [53]: > 100 µM
TGI [54]: > 32.7 µM
TGI [24]: > 69.6 µM
TGI [25]: > 100 µM
TGI [26]: > 49.9 µM
TGI [55]: > 56.5 µM
TGI [27]: > 44.6 µM
TGI [56]: 5.28 µM
TGI [28]: > 55.2 µM
TGI [29]: > 100 µM
TGI [30]: 10.8 µM
TGI [31]: > 70.9 µM
TGI [32]: 34.2 µM
TGI [33]: > 100 µM
TGI [57]: > 32.5 µM
TGI [35]: > 100 µM
TGI [37]: > 59.3 µM
TGI [38]: 10.6 µM
TGI [39]: 30.5 µM
TGI [40]: 44.6 µM
TGI [41]: 28.7 µM
